“And” between values parts separate entries of the source, which are not always exact repeats. Equal entries are not always repeated. Where two headings read alike, the source gives them in different places.
Legend:
[1] = test system: Proteus mirabilis; conditions: for reduction in viable count: more intense light; for reduction in growth / viable count: 24 hour study, after 24 hours
Protocol: (§1) Studies were performed on the photosensitising activity of porphyrin solutions against Staphylococcus epidermidis, Pseudomonas aeruginosa and Proteus mirabilis as these organisms have been isolated from culture-positive cases of infectious endophthalmitis. Studies were performed by adding a porphyrin solution to a culture of the test organism, exposing this mixture to daylight or to a more intense light source comprising 4×250 W halogen bulbs, and then taking a 1 mL aliquot at certain times to determine the viable count.
(§2) 10 mcg/mL solutions of the three porphyrins were investigated. Initially the solutions were made up at the desired concentration and then double filter sterilised.
(§3) Inocula of approximately 1×10^5 cfu/mL were utilised throughout the microbiological studies of porphyrin solutions. Activity was examined both in normal daylight conditions and using a more intense light source comprising 4×250 W halogen bulbs, cooling the temperature to around 32° C.
(§4) Unfiltered and double filter sterilised 10 mcg/mL solutions were used to examine the effect of double filtration on activity.

[2] = test system: Pseudomonas aeruginosa; conditions: for dark activity: intense light series, dark control; for time to activity in light: intense light
Protocol: as §1, §2, §3, §4

[3] = test system: Staphylococcus epidermidis; conditions: for time to dark activity: daylight / laboratory light series; for time to activity in the dark: intense light series; for time to activity on illumination: intense light
Protocol: as §1, §2, §3, §4

[4] = D2O, single exponential decay following the rapid component
Text: The ^1O2 detection system was a liquid-nitrogen-cooled Indium Gallium Arsenide (InGaAs) detector (Judson Technologies Inc, Montgomeryville, Pa., type J22D-M204-R01M-60-1.7) with a 1 mm^2 active area. The detector output was amplified using a Judson PA9 pre-amplifier and collected using a Tektronix TDS 3032 oscilloscope. To obtain acceptable signal-to-noise ratios 512 decays were summed for each reading. To minimise the effect of any inhomogeneity in the sample, readings from 8 different points were averaged, The singlet oxygen emission at 1270 nm was separated from the 1064 nm fundamental laser emission and other spurious emissions by use of a 1200 nm long pass filter (LP1200) and a 1292 nm band pass filter (BPO-1292-80), both supplied by Spectrogon UK Ltd.
Using this approach, the polymers prepared were pre-wetted in buffer prepared with D2O and dipped in porphyrin solutions also prepared from D2O.

[5] = Transient absorbance (triplet lifetime) measurements; format: physicochemical
Protocol: For the transient absorption and singlet oxygen studies, the second harmonic output from a Q-switched Nd:YAG laser was used as the excitation source and the sample was mounted at […] to the excitation beam. A pulse energy of 1 mJ was used for the measurements to avoid burning the sample. For transient absorption measurements, light from a xenon arc lamp (Applied Photophysics Ltd., 150 W) traveling at 90° to the excitation beam was directed through the sample and into a monochromator (Applied Photophysics Ltd., 1200 gr/mm grating.) fitted with an IP28 photomultiplier detector connected to a sampling oscilloscope (Tektronix TDS 3032). A 532 nm holographic notch filter (Kaiser Optical Systems Inc.) was mounted in front of the monoochromator entrance slit to reduce the effect of laser scatter on the signal. Processing of the data was carried out using SigmaPlot for Windows (Version 8.0).
Transient absorbance difference (ΔA) measurements were carried out under oxygen-bubbled conditions and after degassing by nitrogen-bubbling for 20 minutes. […] However, N2 bubbling was used in the present studies as freeze-pump-thaw was inappropriate for the polymer samples.

[6] = in solution; cited from earlier work
[7] = one hour study, double filter sterilised solution
[8] = one hour study, unfiltered 10 mcg/mL solution
[9] = one hour study, filtered solution
[10] = one hour study, daylight / laboratory light, unfiltered solution
[11] = one hour study, unfiltered solution

Row | Structure (SMILES) | dark activity ([2]; one hour study) | time to activity in light [2, 7] [min] | time to activity in light [2, 8] [min] | time to dark activity [3, 9] | time to activity (no growth) in light [3, 10] [min] | time to activity in the dark [3, 9] [min] | time to activity in the dark [3, 11] [min] | time to activity on illumination [3, 9] [min] | time to activity on illumination [3, 11] [min] | reduction in growth / viable count ([1]; daylight) | reduction in viable count ([1]; by 5 hours) | τ1/μs ([5]; N2 bubbled) | τ1/μs ([5]; O2 bubbled) [μs] | other results
1 | C[N+](C)(C)c1ccc(-c2c3nc(c(-c4ccc([N+](C)(C)C)cc4)c4ccc([nH]4)c(-c4ccc([N+](C)(C)C)cc4)c4nc(c(-c5ccc([N+](C)(C)C)cc5)c5ccc2[nH]5)C=C4)C=C3)cc1.[Cl-].[Cl-].[Cl-].[Cl-] [TMAP, tetra(4N,N,N-trimethyl-anilinium)porphine tetrachloride] | some limited dark activity | ≤ 30 | ≤ 30 | not active in the dark | ≤ 10 | ≤ 10 | ≤ 10 | ≤ 10 | ≤ 10 |  |  |  |  | reduction in viable count ([1]; in 3 hours): three log cycle reduction; activity ([1]; one hour study, daylight): no activity; reduction of growth ([2]; 24 hour study, daylight, at 24 hours): 1 log cycle; activity ([2]; one hour study, daylight): no activity; time to dark activity (no growth in dark control) ([3]; one hour study, daylight series, unfiltered solution, dark control): ≤ 10 min
2 | C[n+]1ccc(-c2c3nc(c(-c4cc[n+](C)cc4)c4ccc([nH]4)c(-c4cc[n+](C)cc4)c4nc(c(-c5cc[n+](C)cc5)c5ccc2[nH]5)C=C4)C=C3)cc1.Cc1ccc(S(=O)(=O)[O-])cc1.Cc1ccc(S(=O)(=O)[O-])cc1.Cc1ccc(S(=O)(=O)[O-])cc1.Cc1ccc(S(=O)(=O)[O-])cc1 [TMPyP, tetra(4N-methylpyridyl)porphine tetratosylate salt] | not active in the dark | ≤ 40 | ≤ 40 | ≤ 30 min | ≤ 10 | 20 | 10 | ≤ 10 | ≤ 10 | 1 log cycle | three log cycle reduction | 161 μs and 161.0 ± 4.51 μs | 0.436 ± 0.00062 | photosensitising activity ([2]; 24 hour study, daylight, 10 mcg/mL solution, inoculum ca. 1×10^5 cfu/mL): no photosensitising activity; time to activity in light ([3]; one hour study, daylight / laboratory light, filtered solution): ≤ 10 min; 1O2 emission decay lifetime [4]: 62 μs; triplet lifetime, solution phase ([5]; under O2): 436 ns
3 | Cl.Cl.O=S(=O)(O)c1ccc(-c2c3nc(c(-c4ccc(S(=O)(=O)O)cc4)c4ccc([nH]4)c(-c4ccc(S(=O)(=O)O)cc4)c4nc(c(-c5ccc(S(=O)(=O)O)cc5)c5ccc2[nH]5)C=C4)C=C3)cc1 [TPPS, tetra(4-sulfonatophenyl)-porphine dihydrochloride] |  |  |  |  |  |  |  | ≤ 50 | ≤ 40 | no reduction in viable count | did not show any photosensitising effect | 227.5 ± 6.1 μs | 0.760 ± 0.0023 | φ(1O2) [6]: 0.6717; reduction in the viable count ([2]; more intense source, by 5 hours illumination): one log cycle reduction; time to successful photoinactivation, complete kill ([3]; 24 hour study, daylight): 24 h

Source: US8450359B2, “Polymer-supported photosensitizers for the generation of singlet oxygen” (The Queen's University of Belfast, priority 2006, dated 2013)
